From PMC8799717, “Pharmacological targeting PIKfyve and tubulin as an effective treatment strategy for double-hit lymphoma” (Cell Death Discovery, 2022) come the findings set out here.

Targets include RIOK2 (Homo sapiens, UniProt Q9BVS4); NEK10 (Homo sapiens, UniProt Q6ZWH5); STK39 (Homo sapiens, UniProt Q9UEW8); PIK3CA(E542K) (Homo sapiens, UniProt P42336, E542K); LATS2 (Homo sapiens, UniProt Q9NRM7); PHKG2 (Homo sapiens, UniProt P15735); ALK(L1196M) (Homo sapiens, UniProt Q9UM73, L1196M); SRMS (Homo sapiens, UniProt Q9H3Y6); EPHB2 (Homo sapiens, UniProt P29323); SNRK (Homo sapiens, UniProt Q9NRH2); TEC (Homo sapiens, UniProt P42680); PKN1 (Homo sapiens, UniProt Q16512); BRAF (Homo sapiens, UniProt P15056); PAK1 (Homo sapiens, UniProt Q13153); WNK1 (Homo sapiens, UniProt Q9H4A3); FLT3(D835H) (Homo sapiens, UniProt P36888, D835H).

Common to all, as to test: biochemical
Holding throughout (design): KINOMEscan active-site-directed competition binding panel, 468 kinases, percent of DMSO control at 1 uM
Holding throughout (conditions): KINOMEscan binding, percent of DMSO control; read-out: Ctrl%

Experiment [1] addresses T1, RSK3(Kin.Dom.2-C-terminal) (Homo sapiens, UniProt Q15349).
T1 construct: gene RPS6KA2; Kin.Dom.2-C-terminal

For a further experiment, the target named is T2, ERK4 (Homo sapiens, UniProt P31152).
T2 construct: gene MAPK4

A further experiment has as its target T3, MEK4 (Homo sapiens, UniProt P45985).
T3 construct: gene MAP2K4

A further experiment deals with T4, MST3 (Homo sapiens, UniProt Q9Y6E0).
T4 construct: gene STK24

In the next experiment the target is T5, DRAK1 (Homo sapiens, UniProt Q9UEE5).
T5 construct: gene STK17A

Another experiment has as its target T6, PRP4 (Homo sapiens, UniProt Q13523).
T6 construct: gene PRPF4B

The next experiment addresses T7, LKB1 (Homo sapiens, UniProt Q15831).
T7 construct: gene STK11

Another experiment concerns the target T8, NDR1 (Homo sapiens, UniProt Q15208).
T8 construct: gene STK38

Chain of WNK1 (Q9H4A3 whole entry): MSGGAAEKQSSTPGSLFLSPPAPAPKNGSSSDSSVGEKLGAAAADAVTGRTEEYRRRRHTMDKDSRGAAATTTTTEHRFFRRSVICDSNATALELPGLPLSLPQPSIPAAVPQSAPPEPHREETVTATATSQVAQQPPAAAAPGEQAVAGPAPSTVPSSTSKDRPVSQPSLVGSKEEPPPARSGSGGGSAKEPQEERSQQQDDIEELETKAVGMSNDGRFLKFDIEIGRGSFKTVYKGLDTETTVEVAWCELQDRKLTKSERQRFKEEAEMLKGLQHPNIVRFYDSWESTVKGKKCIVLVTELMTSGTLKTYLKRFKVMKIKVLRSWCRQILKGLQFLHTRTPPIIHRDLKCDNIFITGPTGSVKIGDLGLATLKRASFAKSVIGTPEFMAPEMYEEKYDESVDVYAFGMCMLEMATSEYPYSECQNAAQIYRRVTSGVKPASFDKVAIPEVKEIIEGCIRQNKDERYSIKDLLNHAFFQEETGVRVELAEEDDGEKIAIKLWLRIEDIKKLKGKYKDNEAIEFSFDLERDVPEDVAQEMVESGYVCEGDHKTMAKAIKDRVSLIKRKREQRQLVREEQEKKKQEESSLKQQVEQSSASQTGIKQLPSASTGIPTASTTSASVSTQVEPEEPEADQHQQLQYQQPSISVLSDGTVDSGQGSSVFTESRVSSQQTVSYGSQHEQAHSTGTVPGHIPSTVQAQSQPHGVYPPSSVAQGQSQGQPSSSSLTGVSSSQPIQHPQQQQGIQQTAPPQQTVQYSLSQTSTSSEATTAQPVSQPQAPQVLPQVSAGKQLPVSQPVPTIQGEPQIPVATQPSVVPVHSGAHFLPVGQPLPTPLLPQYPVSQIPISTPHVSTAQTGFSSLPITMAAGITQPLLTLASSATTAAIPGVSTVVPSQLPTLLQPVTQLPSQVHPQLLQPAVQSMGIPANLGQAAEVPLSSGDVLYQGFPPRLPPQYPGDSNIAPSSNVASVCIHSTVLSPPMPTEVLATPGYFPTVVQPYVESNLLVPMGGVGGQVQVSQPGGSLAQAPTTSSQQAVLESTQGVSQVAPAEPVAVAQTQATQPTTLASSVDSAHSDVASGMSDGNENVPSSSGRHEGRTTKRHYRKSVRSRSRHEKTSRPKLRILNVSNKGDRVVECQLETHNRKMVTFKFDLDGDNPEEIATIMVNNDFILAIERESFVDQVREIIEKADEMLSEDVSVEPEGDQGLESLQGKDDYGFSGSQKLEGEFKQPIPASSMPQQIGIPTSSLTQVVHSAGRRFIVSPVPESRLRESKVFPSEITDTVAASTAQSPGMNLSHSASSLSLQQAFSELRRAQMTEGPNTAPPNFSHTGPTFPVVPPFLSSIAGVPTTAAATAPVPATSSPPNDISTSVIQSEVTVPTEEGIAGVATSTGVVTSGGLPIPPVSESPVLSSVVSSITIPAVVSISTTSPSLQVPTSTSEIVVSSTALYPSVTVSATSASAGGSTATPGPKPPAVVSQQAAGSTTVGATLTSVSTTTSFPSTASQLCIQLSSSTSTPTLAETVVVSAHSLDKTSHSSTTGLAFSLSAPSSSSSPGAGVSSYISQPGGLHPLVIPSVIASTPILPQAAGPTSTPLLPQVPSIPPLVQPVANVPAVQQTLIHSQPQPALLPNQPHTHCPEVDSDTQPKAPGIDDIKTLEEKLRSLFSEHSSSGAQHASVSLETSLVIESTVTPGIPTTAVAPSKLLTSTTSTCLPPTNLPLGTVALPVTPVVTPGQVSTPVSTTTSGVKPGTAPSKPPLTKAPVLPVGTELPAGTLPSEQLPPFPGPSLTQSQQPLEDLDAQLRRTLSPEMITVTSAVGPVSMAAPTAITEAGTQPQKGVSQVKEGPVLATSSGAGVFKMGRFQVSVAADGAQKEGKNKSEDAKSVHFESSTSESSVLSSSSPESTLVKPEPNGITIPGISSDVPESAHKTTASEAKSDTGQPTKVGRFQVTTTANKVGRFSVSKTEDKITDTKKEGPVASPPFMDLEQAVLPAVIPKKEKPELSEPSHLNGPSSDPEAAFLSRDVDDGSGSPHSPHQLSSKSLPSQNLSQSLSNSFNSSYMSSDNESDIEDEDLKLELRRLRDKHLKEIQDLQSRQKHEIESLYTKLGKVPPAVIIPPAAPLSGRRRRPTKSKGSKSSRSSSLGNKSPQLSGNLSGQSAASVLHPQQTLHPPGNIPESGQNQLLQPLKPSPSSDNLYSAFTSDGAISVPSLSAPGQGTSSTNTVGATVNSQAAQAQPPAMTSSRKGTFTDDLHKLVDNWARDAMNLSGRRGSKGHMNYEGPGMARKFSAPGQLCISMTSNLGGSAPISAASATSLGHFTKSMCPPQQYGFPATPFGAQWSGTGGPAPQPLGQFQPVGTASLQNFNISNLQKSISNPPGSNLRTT
Chain of RIOK2 (Q9BVS4 whole entry): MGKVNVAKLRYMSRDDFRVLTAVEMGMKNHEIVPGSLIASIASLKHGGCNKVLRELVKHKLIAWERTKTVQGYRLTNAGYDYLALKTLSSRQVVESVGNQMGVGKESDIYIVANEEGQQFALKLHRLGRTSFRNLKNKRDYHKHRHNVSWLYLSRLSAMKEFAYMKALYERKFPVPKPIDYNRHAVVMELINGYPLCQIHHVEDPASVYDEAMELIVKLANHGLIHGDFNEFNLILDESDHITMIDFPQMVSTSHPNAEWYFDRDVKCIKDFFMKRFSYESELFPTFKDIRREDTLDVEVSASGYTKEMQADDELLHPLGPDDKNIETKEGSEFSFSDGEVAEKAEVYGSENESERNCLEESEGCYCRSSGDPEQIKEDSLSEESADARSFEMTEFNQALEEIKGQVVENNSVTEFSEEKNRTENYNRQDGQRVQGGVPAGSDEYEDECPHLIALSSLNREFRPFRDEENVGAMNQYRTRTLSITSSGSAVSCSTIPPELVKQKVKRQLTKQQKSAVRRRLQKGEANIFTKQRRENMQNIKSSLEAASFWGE
Chain of SNRK (Q9NRH2 whole entry): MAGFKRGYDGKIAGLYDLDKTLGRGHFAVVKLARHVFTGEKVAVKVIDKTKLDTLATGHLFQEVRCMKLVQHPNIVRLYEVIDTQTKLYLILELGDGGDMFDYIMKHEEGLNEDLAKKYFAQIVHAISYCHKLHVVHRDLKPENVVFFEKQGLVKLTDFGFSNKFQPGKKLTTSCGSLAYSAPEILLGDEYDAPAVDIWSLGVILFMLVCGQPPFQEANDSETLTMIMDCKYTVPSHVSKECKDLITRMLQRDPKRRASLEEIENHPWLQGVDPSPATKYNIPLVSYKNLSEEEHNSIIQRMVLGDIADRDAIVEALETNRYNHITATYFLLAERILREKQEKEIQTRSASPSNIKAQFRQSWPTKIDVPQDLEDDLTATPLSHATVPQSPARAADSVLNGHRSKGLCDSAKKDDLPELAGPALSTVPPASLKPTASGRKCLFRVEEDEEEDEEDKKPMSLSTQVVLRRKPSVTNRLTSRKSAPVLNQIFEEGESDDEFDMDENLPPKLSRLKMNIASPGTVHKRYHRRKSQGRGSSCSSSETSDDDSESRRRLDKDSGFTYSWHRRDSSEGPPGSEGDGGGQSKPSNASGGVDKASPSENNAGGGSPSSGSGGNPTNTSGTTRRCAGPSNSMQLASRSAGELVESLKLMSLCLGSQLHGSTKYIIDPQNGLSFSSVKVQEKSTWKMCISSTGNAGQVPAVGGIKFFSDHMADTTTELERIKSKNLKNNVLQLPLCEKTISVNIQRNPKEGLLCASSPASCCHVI
T3 sequence (P45985 whole entry): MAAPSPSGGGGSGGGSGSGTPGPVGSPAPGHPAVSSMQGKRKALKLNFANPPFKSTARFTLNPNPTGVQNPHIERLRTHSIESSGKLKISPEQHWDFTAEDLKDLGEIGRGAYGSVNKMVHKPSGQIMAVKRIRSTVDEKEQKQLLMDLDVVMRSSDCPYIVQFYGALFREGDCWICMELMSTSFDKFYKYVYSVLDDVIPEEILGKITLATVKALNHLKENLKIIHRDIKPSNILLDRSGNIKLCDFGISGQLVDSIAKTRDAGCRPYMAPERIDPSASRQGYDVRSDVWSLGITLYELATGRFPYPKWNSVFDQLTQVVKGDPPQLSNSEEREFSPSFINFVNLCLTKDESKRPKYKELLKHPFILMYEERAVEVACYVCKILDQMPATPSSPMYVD
Chain of TEC (P42680 whole entry): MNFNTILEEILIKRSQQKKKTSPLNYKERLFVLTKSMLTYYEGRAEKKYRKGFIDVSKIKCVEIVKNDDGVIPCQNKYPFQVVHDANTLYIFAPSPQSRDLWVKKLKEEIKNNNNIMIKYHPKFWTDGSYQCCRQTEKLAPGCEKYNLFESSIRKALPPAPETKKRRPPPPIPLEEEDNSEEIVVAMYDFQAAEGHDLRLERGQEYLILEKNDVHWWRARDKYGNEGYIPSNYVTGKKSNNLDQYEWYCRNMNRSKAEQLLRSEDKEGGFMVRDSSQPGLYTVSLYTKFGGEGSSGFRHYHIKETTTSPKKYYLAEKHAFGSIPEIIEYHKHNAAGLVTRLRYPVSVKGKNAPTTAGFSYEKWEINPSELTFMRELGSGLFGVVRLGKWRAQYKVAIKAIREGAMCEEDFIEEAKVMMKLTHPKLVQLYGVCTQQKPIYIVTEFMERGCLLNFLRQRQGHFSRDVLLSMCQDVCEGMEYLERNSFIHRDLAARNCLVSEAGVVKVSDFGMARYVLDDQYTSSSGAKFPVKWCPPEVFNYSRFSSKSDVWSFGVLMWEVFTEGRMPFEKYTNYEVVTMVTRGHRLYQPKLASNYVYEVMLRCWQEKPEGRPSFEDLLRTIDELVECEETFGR

As for `Cc1ccc(NC(=O)c2cccc(C(F)(F)F)c2)cc1Nc1cc(-c2cccnc2)nc2[nH]ccc12` [HZX-02-059], the remaining binding at 1 µM worked out at 91% on RIOK2; 100% at NEK10; 94% at STK39; 89% in [1]; 56% at PIK3CA(E542K); 99% on ERK4. The remaining binding at 1 µM came out at 78% at MEK4; 67% at LATS2; 100% at MST3; 92% on PHKG2; 97% at ALK(L1196M); 100% at SRMS. Moreover, the remaining binding at 1 µM is 83% at DRAK1; 4.7% on EPHB2; 71% on SNRK; 96% at TEC; 93% at PKN1; 18% at BRAF. Further, the remaining binding at 1 µM at PRP4 worked out at 69%; at PAK1 it was 94%; on LKB1, 72%; at WNK1, 98%; at NDR1, 100%; at FLT3(D835H) it was 92%.
